Data on twelve compounds can be found in patent US4783462A, “3(2H)pyridazinone, and anti-allergic agent containing it” (Nissan Chemical Industries Ltd., priority 1985, dated 1988).

SMILES strings stand for the structures.

In data set [1] the test system is LTC4. In words: LTC4 antagonism in isolated guinea-pig trachea, Test method (i) (Table 2). Particulars: Cavia porcellus, 5 min, read-out: Antagonism (%). The class given is cell-based. On the procedure:
(§1) (i) LTC4 and LTD4 antagonisms in guinea-pig trachea
(§2) Antagonisms for LTC4 and LTD4 were determined in isolated guinea-pig trachea prepared as spiral strip. Tracheal preparations were suspended under 1 g tension in 10 ml organ baths and they were incubated for 1 hr prior to use. Contractile responses to LTC4 (2×10^-8 g/ml) and LTD4 (2×10^-8 g/ml) were obtained after the maximal response to histamine (10^-4 M). Test compounds dissolved in 100% dimethyl sulfoxide were added to the organ baths (final concentration of 10^-5 g/ml or 10^-6 g/ml) 5 min prior to LTC4 and LTD4 addition, and then contractile responses to LTC4 and LTD4 were compared with those of control which was obtained from a paired trachea in the absence of test compounds. LTC4 - and LTD4 -induced contractions were expressed as a percentage of the maximal response to histamine. The antagonism was determined as follows:
(§3) Antagonism (%)=(1.0-% contraction in test/% contraction in […]

The test system of data set [2] is ddY strain male mice. The data set is described as follows: Acute toxicity test, Test method-(2), intraperitoneal. Type of data set: in vivo. Particulars: 7 days. As for the experimental part:
The lethal ratio was determined in ddY strain male mice (4 weeks old) at 7 days after the intraperitoneal injection of test compounds.

Data set [3] has as its system anaphylactic bronchoconstriction in passively sensitized guinea-pig. The data set is described as follows: Effect on anaphylactic bronchoconstriction in passively sensitized guinea-pig. The class given is in vivo. The settings on record: 2 mg/kg i.v. As for the experimental part: (iii) Effect on anaphylactic bronchoconstriction in passively sensitized guinea-pig
Male guinea-pigs (350-450 g) were passively sensitized with intravenous (i.v.) injection of 0.125 ml rabbit anti-EA (egg albumin) serum (Cappel Laboratories) 1 day preceding the experiment. […] Sensitized guinea-pigs were anaesthetized with intraperitoneal injection of urethane (1.5 g/kg). The right jugular vein was cannulated for the administration of the all agents and trachea was cannulated to record total pulmonary resistance. Guinea-pigs were artificially ventilated by a small animal respirator (Shinano, Model SN-480-7) set at a stroke volume of 5 ml and a rate of 50 breaths per min. […] The increase in air overflow volume was expressed as a percentage of the maximum bronchoconstriction obtained by clamping off the trachea. Following surgical preparation, the animals were pretreated with indomethacin (1.0 mg/kg, 10 min), pyrilamine (2 mg/kg, 6 min) and propranolol (0.1 mg/kg, 5 min) prior to the EA challenge (0.1 or 10 mg/kg). All test compounds, 2 mg/kg in 3% Tween 80 or 3% PEG-400, were administered 1 min before the EA challenge. Inhibition (%) of bronchoconstriction was determined as follows: Inhibition (%)=(1.0%-maximum bronchoconstriction in test/% maximum bronchoconstriction in control)×100. The maximum bronchoconstriction was obtained within 20 min after the EA challenge.
In the Table, the dose of EA was 10 mg/kg, and each compound was dissolved or suspended in 3% Tween 80.
The dose of EA was 0.1 mg/kg.

For data set [4], the system named is LTC4. In words: Antagonism in isolated guinea-pig trachea, Test method (i) (Table 3, given as LTC4 antagonism). Type of data set: cell-based. Particulars: Cavia porcellus, 5 min, test compound 10^-5 g/ml, given as LTC4 antagonisms. In short, it runs like this: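 Spiral strips of guinea-pig trachea under 1 g tension, contracted by LTC4 (2×10^-8 g/ml) after maximal histamine (10^-4 M) response. Compounds added at 10^-5 or 10^-6 g/ml final 5 min beforehand; contraction expressed as % histamine maximum and antagonism % calculated against paired untreated trachea.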

The test system of data set [5] is ddY strain male mice. In words: Acute toxicity test, Test method-(1), oral. Type of data set: in vivo. The settings on record: 7 days. As for the experimental part:
The lethal ratio was determined in ddY strain male mice (4 weeks old) at 7 days after the oral administation of test compounds.

For data set [6], the system named is LTD4. The data set is described as follows: LTD4 antagonism in isolated guinea-pig trachea, Test method (i) (Table 4, values with asterisk). The settings on record: Cavia porcellus, 5 min, test compound 10^-6 g/ml, 5 min prior. The class given is cell-based. As for the experimental part:
as §1, §2, §3

In data set [7] the test system is LTD4. The data set is described as follows: LTD4 antagonism in isolated guinea-pig trachea with indomethacin, Test method (ii) (Table 4). Type of data set: cell-based. Particulars: Cavia porcellus, 0.5 h, LTD4 2×10^-8 g/ml, test compound 10^-6 g/ml, 30 min prior, 5 μmol indomethacin.
Where [8] appears, read: LTC4 2×10^-8 g/ml, test compound 10^-5 g/ml.
The mark [9] stands for this setting: Table 5-(1), EA 10 mg/kg, 3% Tween 80.
The mark [10] stands for this setting: Table 5-(2), EA 0.1 mg/kg, Tween 80.

Turning to `CCCc1cc(C(=O)OC)ccc1OCCCNc1cn[nH]c(=O)c1Cl` [Compound No. 4, 4-Chloro-5-[3-(2-n-propyl-4-methoxycarbonylphenoxy)propylamino]-3(2H)pyridazinone], the inhibition at 10 µg/mL was 99% in data set [1] (setting [8]) and 85% in data set [4]. Moreover, the “Lethal ratio (Death number/Experimental number)” value in data set [2] (200 mg/kg intraperitoneal) is recorded as 0/2; in data set [2] (400 mg/kg intraperitoneal), 0/1. The “Inhibition (%)” value in data set [3] (setting [9]) was found to be 27%.
Consider `CCCc1cc(C(=O)O)ccc1OCCCNc1cnn(CC)c(=O)c1Cl` [Compound No. 7, 4-Chloro-5-[3-(2-n-propyl-4-carboxyphenoxy)propylamino]-2-ethyl-3(2H)pyridazinone], for which the inhibition at 10 µg/mL in data set [1] (setting [8]) worked out at 95%; in data set [4], 82%. Besides, the “Lethal ratio (Death number/Experimental number)” value is on record as 0/2 in data set [2] (200 mg/kg intraperitoneal) and 0/1 in data set [2] (400 mg/kg intraperitoneal). Besides, in data set [3] (setting [9]), the “Inhibition (%)” value turned out to be 31%.
Regarding `CCn1ncc(NCCc2ccc(OC)cc2)c(Cl)c1=O` [Compound No. 20, 4-Chloro-5-[2-(4-methoxyphenyl)ethylamino]-2-ethyl-3(2H)pyridazinone], the inhibition at 10 µg/mL in data set [1] (setting [8]) turned out to be 73%; in data set [4] it was 80%.
As to `CCCc1cc(OC)ccc1OCCCNc1cnn(CC)c(=O)c1Cl` [Compound No. 82, 4-chloro-5-[3-(2-n-propyl-4-methoxyphenoxy)propylamino]-2-ethyl-3(2H)pyridazinone], the Lethal ratio in data set [5] (400 mg/kg oral) and in data set [5] (800 mg/kg oral) was 0/2 throughout. Moreover, the inhibition at 10 µg/mL in data set [4] came out at 100%.
As to `CCCc1c(OCC(O)COc2ccc3c(=O)cc(C(=O)O)oc3c2CCC)ccc(C(C)=O)c1O` (stereo not drawn) [FPL-55712, reference compound], the inhibition at 10 µg/mL in data set [1] turned out to be 100%; in data set [4], 97%. For the same compound, the inhibition at 1 µg/mL in data set [6] is 76%; in data set [7], 94%. Further, the results for the “Inhibition (%)” value in data set [3] (setting [9]) and in data set [3] (setting [10]) were 27% and 60%, respectively.
Regarding `CCCc1c(OCCCOc2cnn(C(C)(C)C)c(=O)c2Cl)ccc2c(=O)cc(C(=O)OCC)oc12` [compound 23], the inhibition at 10 µg/mL is 27% in data set [1] (setting [8]) and 31% in data set [4].
Consider `CCCc1c(OCCCOc2cnn(CC)c(=O)c2Cl)ccc2c(=O)cc(C(=O)OCC)oc12` [compound 25], for which the inhibition at 10 µg/mL came out at 53% in data set [1] (setting [8]) and 24% in data set [4]. Further, the “Inhibition (%)” value in data set [3] (setting [9]) is recorded as 18%.
In turn, `C=CCc1cc(C#N)ccc1OCCCNc1cnn(C(C)C)c(=O)c1Cl` [compound 69] displayed an inhibition at 1 µg/mL in data set [6] of 66%. Besides, the “Inhibition (%)” value in data set [3] (setting [10]) is 51%. In data set [4], this compound registered an inhibition at 10 µg/mL of 99%.
As for `Cc1ccccc1OCCCNc1cnn(C(C)C)c(=O)c1Cl` [compound 72], the Lethal ratio in data set [5] (400 mg/kg oral) is 0/2. Moreover, the inhibition at 10 µg/mL in data set [4] was found to be 85%.
In data set [6], `C=CCc1cc(C#N)ccc1OCCCNc1cnn(CC)c(=O)c1Cl` [compound 80] returned an inhibition at 1 µg/mL of 59%. Also, the Lethal ratio in data set [5] (400 mg/kg oral) and in data set [5] (800 mg/kg oral) was 0/2 in each case. Besides, in data set [4], the inhibition at 10 µg/mL was 98%.
`CCc1cc(C=O)ccc1OCCCNc1cnn(C(C)C)c(=O)c1Cl` [compound 94]: the Lethal ratio in data set [5] (400 mg/kg oral) and in data set [5] (800 mg/kg oral) was 0/2 in each case. The inhibition at 10 µg/mL in data set [4] was found to be 98%.
As to `CCc1cc(C(=O)OC)ccc1OCCCNc1cnn(C(C)C)c(=O)c1Cl` [compound 101], the “Inhibition (%)” value in data set [3] (Table 5-(2), EA 0.1 mg/kg, PEG-400) is recorded as 51%. For the same compound, the Lethal ratio in data set [5] (400 mg/kg oral) and in data set [5] (800 mg/kg oral) was 0/2 in each case. In data set [4], this compound gave an inhibition at 10 µg/mL of 92%.
